Source: the NIST ThermoML archive (doi:10.1021/acs.jced.7b00458)
Numbers after ± are expanded uncertainties.

Conditions: 100 kPa, Liquid; for electrical conductivity: Alternating current cell with electrodes; for viscosity: Concentric cylinders viscometry; for mass density: Vibrating tube method

CCCC[N+]1(C)CCCC1.O=S(=O)([N-]S(=O)(=O)C(F)(F)F)C(F)(F)F
Conditions | electrical conductivity [S/m] | mass density [kg/m3] | viscosity [mPa·s]
298.15 K | 0.393 ± 0.039 | 1395 ± 1 | 77.76 ± 0.66
300.15 K | 0.423 ± 0.042 | 1393 ± 1 | 71.11 ± 0.56
306.15 K | 0.52 ± 0.052 | 1388 ± 1 | 54.97 ± 0.36
312.15 K | 0.638 ± 0.064 | 1382 ± 1 | 43.41 ± 0.31
318.15 K | 0.772 ± 0.077 | 1377 ± 1 | 34.92 ± 0.25
324.15 K | 0.924 ± 0.092 | 1372 ± 1 | 28.56 ± 0.2
330.15 K | 1.08 ± 0.11 | 1367 ± 1 | 23.69 ± 0.17
336.15 K | 1.26 ± 0.13 | 1361 ± 1 | 19.91 ± 0.14
341.15 K | – | 1357 ± 1 | 17.37 ± 0.12
348.15 K | 1.64 ± 0.16 | 1351 ± 1 | 14.53 ± 0.1
355.15 K | – | 1345 ± 1 | 12.31 ± 0.09
361.15 K | 2.11 ± 0.21 | 1340 ± 1 | 10.78 ± 0.08
373.15 K | – | 1330 ± 1 | 8.272 ± 0.06

CCCC[N+]1(C)CCCCC1.O=S(=O)([N-]S(=O)(=O)C(F)(F)F)C(F)(F)F
Conditions | electrical conductivity [S/m] | mass density [kg/m3] | viscosity [mPa·s]
298.15 K | 0.139 ± 0.017 | 1382 ± 1 | 188.9 ± 3.5
300.15 K | 0.153 ± 0.018 | 1380 ± 1 | 168 ± 2.9
306.15 K | 0.202 ± 0.024 | 1375 ± 1 | 120.2 ± 1.6
312.15 K | 0.264 ± 0.032 | 1370 ± 1 | 88.67 ± 0.85
318.15 K | 0.337 ± 0.04 | 1365 ± 1 | 67.13 ± 0.5
324.15 K | 0.424 ± 0.051 | 1360 ± 1 | 52.01 ± 0.34
330.15 K | 0.519 ± 0.062 | 1355 ± 1 | 41.12 ± 0.29
336.15 K | 0.626 ± 0.075 | 1349 ± 1 | 33.12 ± 0.23
341.15 K | – | 1345 ± 1 | 27.98 ± 0.2
348.15 K | 0.876 ± 0.1 | 1339 ± 1 | 22.51 ± 0.16
355.15 K | – | 1333 ± 1 | 18.36 ± 0.13
361.15 K | 1.19 ± 0.14 | 1329 ± 1 | 15.62 ± 0.11
373.15 K | – | 1319 ± 1 | 11.62 ± 0.08

CCCCC[P+](CC)(CC)CC.O=S(=O)([N-]S(=O)(=O)C(F)(F)F)C(F)(F)F
Conditions | electrical conductivity [S/m] | mass density [kg/m3] | viscosity [mPa·s]
298.15 K | 0.21 ± 0.025 | 1304 ± 1 | 85.3 ± 0.79
300.15 K | 0.223 ± 0.027 | 1302 ± 1 | 77.43 ± 0.65
306.15 K | 0.286 ± 0.034 | 1297 ± 1 | 58.68 ± 0.4
312.15 K | 0.358 ± 0.043 | 1292 ± 1 | 45.42 ± 0.32
318.15 K | 0.435 ± 0.052 | 1287 ± 1 | 35.82 ± 0.25
324.15 K | 0.521 ± 0.063 | 1282 ± 1 | 28.79 ± 0.2
330.15 K | 0.612 ± 0.073 | 1277 ± 1 | 23.5 ± 0.17
336.15 K | 0.711 ± 0.085 | 1272 ± 1 | 19.46 ± 0.14
341.15 K | – | 1268 ± 1 | 16.79 ± 0.12
348.15 K | 0.917 ± 0.11 | 1262 ± 1 | 13.86 ± 0.1
355.15 K | – | 1256 ± 1 | 11.58 ± 0.08
361.15 K | 1.17 ± 0.14 | 1251 ± 1 | 10.02 ± 0.07
373.15 K | – | 1241 ± 1 | 7.531 ± 0.054

CC[P+](CC)(CC)CCOC.O=S(=O)([N-]S(=O)(=O)C(F)(F)F)C(F)(F)F
Conditions | electrical conductivity [S/m] | mass density [kg/m3] | viscosity [mPa·s]
298.15 K | 0.384 ± 0.046 | 1378 ± 1 | 48.14 ± 0.34
300.15 K | 0.411 ± 0.049 | 1376 ± 1 | 44.28 ± 0.31
306.15 K | 0.498 ± 0.06 | 1370 ± 1 | 34.95 ± 0.25
312.15 K | 0.608 ± 0.073 | 1365 ± 1 | 28.1 ± 0.2
318.15 K | 0.719 ± 0.086 | 1360 ± 1 | 22.97 ± 0.16
324.15 K | 0.848 ± 0.1 | 1354 ± 1 | 19.04 ± 0.14
330.15 K | 0.987 ± 0.12 | 1349 ± 1 | 16.01 ± 0.11
336.15 K | 1.13 ± 0.14 | 1344 ± 1 | 13.62 ± 0.1
341.15 K | – | 1339 ± 1 | 11.98 ± 0.09
348.15 K | 1.45 ± 0.17 | 1333 ± 1 | 10.15 ± 0.07
355.15 K | – | 1327 ± 1 | 8.692 ± 0.062
361.15 K | 1.84 ± 0.22 | 1322 ± 1 | 7.672 ± 0.055
373.15 K | – | 1311 ± 1 | 5.99 ± 0.044
